Laboratory results from patent US20090093454A1, “Chemical Compounds” (priority 2005, published 2009).

test system: HIV-1; experiment: HIV infectivity assay (Table 2, strain not given); assay type: cell-based; conditions: Human immunodeficiency virus 1, read-out: Activity Level
Protocol: (§1) Compounds were profiled against two HIV-1 viruses, the M-tropic (CCR5 utilizing) Ba-L strain and the T-tropic (CXCR4 utilizing) IIIB strain. Both viruses were propagated in human peripheral blood lymphocytes. Compounds were tested for there ability to block infection of the HOS cell line (expressing hCXCR4/hCCR5/hCD4/pHIV-LTR-luciferase) by either HIV-1 Ba-L or HIV-1, IIIB. Compound cytotoxicity was also examined in the absence of virus addition.
(§2) HOS cells (expressing hCXCR4/hCCR5/hCD4/pHIV-LTR-luciferase) were harvested and diluted in Dulbeccos modified Eagles media supplemented with 2% FCS and non-essential amino acid to a concentration of 60,000 cells/ml. The cells were plated into 96-well plates (100 ul per well) and the plates were placed in a tissue culture incubator (37° C.; 5% CO2/95% air) for a period of 24 h.
Subsequently, 50 ul of the desired drug solution (4 times the final concentration) was added to each well and the plates were returned to the tissue culture incubator (37° C.; 5% CO2/95% air) for 1 h. Following this incubation 50 ul of diluted virus was added to each well (approximately 2 million RLU per well of virus). The plates were returned to the tissue culture incubator (37° C.; 5% CO2/95% air) and were incubated for a further 96 h.
Following this incubation the endpoint for the virally infected cultures was quantified following addition of Steady-Glo Luciferase assay system reagent (Promega, Madison, Wis.). Cell viability or non-infected cultures was measured using a CellTiter-Glo luminescent cell viability assay system (Promega, Madison, Wis.). All luminescent readouts are performed on a Topcount luminescence detector (Packard, Meridien, Conn.).
as §1, with “Ba-L was” for “Both viruses were”, “either peripheral blood lymphocytes or SupT1/CCR5+/CXCR4+ cells. IIIB was propagated in” for “human”, “their” for “there”
as §2, with “FCS” for “FCS and non-essential amino acid”, “120,000” for “60,000”, “(50 μl” for “(100 ul”, “(370°” for “(37°”
Subsequently, 50 μl of the desired drug solution (2 times the final concentration) was added to each well and the plates were returned to the tissue culture incubator (370° C.; 5% CO2/95% air) for 1 h. Following this incubation, 60 μl of diluted virus (4 times the final concentration) was added to 60 μl of 2× the final desired concentration of the compound and 100 μl of this compound/virus mix was added to each well (approximately 2 million RLU per well of virus). The plates were returned to the tissue culture incubator (370° C.; 5% CO2/95% air) and were incubated for a further 96 h.

Row | SMILES | IC50 [nM]
1 | CNCCCN(C)c1cccc2nc(CN3CCC[C@H]4CCc5cccnc5[C@H]43)cn12 [Example 81, N-{2-[(4aR,10bS)-3,4,4a,5,6,10b-hexahydro-1,10-phenanthrolin-1(2H)-ylmethyl]imidazo[1,2-a]pyridin-5-yl}-N,N′-dimethyl-1,3-propanediamine] | < 100
2 | CC(C)N1CCN(c2cccc3nc(CN4CCC[C@H]5CCc6cccnc6[C@H]54)cn23)CC1 [Example 82, (4aR,10bS)-1-({5-[4-(1-methylethyl)-1-piperazinyl]imidazo[1,2-a]pyridin-2-yl}methyl)-1,2,3,4,4a,5,6,10b-octahydro-1,10-phenanthroline] | < 100
3 | CN(C)C1CCN(c2cccc3nc(CN4CCC[C@H]5CCc6cccnc6[C@H]54)cn23)C1 (stereo partly drawn) [Example 83, 1-{2-[(4aR,10bS)-3,4,4a,5,6,10b-hexahydro-1,10-phenanthrolin-1(2H)-ylmethyl]imidazo[1,2-a]pyridin-5-yl}-N,N-dimethyl-3-pyrrolidinamine] | < 100
4 | NCC1CCN(c2cccc3nc(CN4CCC[C@H]5CCc6cccnc6[C@H]54)cn23)CC1 [Example 85, [(1-{2-[(4aR,10bS)-3,4,4a,5,6,10b-hexahydro-1,10-phenanthrolin-1(2H)-ylmethyl]imidazo[1,2-a]pyridin-5-yl}-4-piperidinyl)methyl]amine] | < 100
5 | CN(C)CC1CCN(c2cccc3nc(CN4CCC[C@H]5CCc6cccnc6[C@H]54)cn23)CC1 [Example 86, [(1-{2-[(4aR,10bS)-3,4,4a,5,6,10b-hexahydro-1,10-phenanthrolin-1(2H)-ylmethyl]imidazo[1,2-a]pyridin-5-yl}-4-piperidinyl)methyl]dimethylamine] | < 100
6 | c1cnc2c(c1)CC[C@@H]1CCCN(Cc3cn4c(N5CCCNCC5)cccc4n3)[C@H]21 [Example 87, (4aR,10bS)-1-{[5-(hexahydro-1H-1,4-diazepin-1-yl)imidazo[1,2-a]pyridin-2-yl]methyl}-1,2,3,4,4a,5,6,10b-octahydro-1,10-phenanthroline] | < 100
7 | NC1CCN(c2cccc3nc(CN4CCC[C@H]5CCc6cccnc6[C@H]54)cn23)CC1 [Example 89, 1-{2-[(4aR,10bS)-3,4,4a,5,6,10b-hexahydro-1,10-phenanthrolin-1(2H)-ylmethyl]imidazo[1,2-a]pyridin-5-yl}-4-piperidinamine] | < 100
8 | CN(C)CCNc1cccc2nc(CN3CCC[C@H]4CCc5cccnc5[C@H]43)cn12 [Example 90, N′-{2-[(4aR,10bS)-3,4,4a,5,6,10b-hexahydro-1,10-phenanthrolin-1(2H)-ylmethyl]imidazo[1,2-a]pyridin-5-yl}-N,N-dimethyl-1,2-ethanediamine] | 100 to 500
9 | NCCN1CCN(c2cccc3nc(CN4CCC[C@H]5CCc6cccnc6[C@H]54)cn23)CC1 [Example 92, [2-(4-{2-[(4aR,10bS)-3,4,4a,5,6,10b-hexahydro-1,10-Phenanthrolin-1(2H)-ylmethyl]imidazo[1,2-a]pyridin-5-yl}-1-piperazinyl)ethyl]amine] | < 100
10 | CN1CCCN(c2cccc3nc(CN4CCC[C@H]5CCc6cccnc6[C@H]54)cn23)CC1 [Example 93, (4aR,10bS)-1-{[5-(4-methylhexahydro-1H-1,4-diazepin-1-yl)imidazo[1,2-a]pyridin-2-yl]methyl}-1,2,3,4,4a,5,6,10b-octahydro-1,10-phenanthroline] | < 100
11 | CNC1CCN(c2cccc3nc(CN4CCC[C@H]5CCc6cccnc6[C@H]54)cn23)C1 (stereo partly drawn) [Example 95, 1-{2-[(4aR,10bS)-3,4,4a,5,6,10b-hexahydro-1,10-phenanthrolin-1(2H)-ylmethyl]imidazo[1,2-a]pyridin-5-yl}-N-methyl-3-pyrrolidinamine] | < 100
12 | NC1CN(c2cccc3nc(CN4CCC[C@H]5CCc6cccnc6[C@H]54)cn23)C1 [Example 97, 1-{2-[(4aR,10bS)-3,4,4a,5,6,10b-hexahydro-1,10-phenanthrolin-1(2H)-ylmethyl]imidazo[1,2-a]pyridin-5-yl}-3-azetidinamine] | < 100
13 | CN(C)C1CN(c2cccc3nc(CN4CCC[C@H]5CCc6cccnc6[C@H]54)cn23)C1 [Example 98, 1-{2-[(4aR,10bS)-3,4,4a,5,6,10b-hexahydro-1,10-phenanthrolin-1(2H)-ylmethyl]imidazo[1,2-a]pyridin-5-yl}-N,N-dimethyl-3-azetidinamine] | 100 to 500
14 | COCCN1CCN(c2cccc3nc(CN4CCC[C@H]5CCc6cccnc6[C@H]54)cn23)CC1 [Example 99, (4aR,10bS)-1-[(5-{4-[2-(methyloxy)ethyl]-1-piperazinyl}imidazo[1,2-a]pyridin-2-yl)methyl]-1,2,3,4,4a,5,6,10b-octahydro-1,10-phenanthroline] | < 100
15 | CN(C)[C@H]1CCN(c2cccc3nc(CN4CCC[C@H]5CCc6cccnc6[C@H]54)cn23)C1 [Example 100, (3S)-1-{2-[(4aR,10bS)-3,4,4a,5,6,10b-hexahydro-1,10-phenanthrolin-1(2H)-ylmethyl]imidazo[1,2-a]pyridin-5-yl}-N,N-dimethyl-3-pyrrolidinamine] | < 100
16 | O=C(CN1CCN(c2cccc3nc(CN4CCC[C@H]5CCc6cccnc6[C@H]54)cn23)CC1)N1CCCC1 [Example 101, (4aR,10bS)-1-[(5-{4-[2-oxo-2-(1-pyrrolidinyl)ethyl]-1-piperazinyl}imidazo[1,2-a]pyridin-2-yl)methyl]-1,2,3,4,4a,5,6,10b-octahydro-1,10-phenanthroline] | < 100
17 | CN(C)C(=O)CN1CCN(c2cccc3nc(CN4CCC[C@H]5CCc6cccnc6[C@H]54)cn23)CC1 [Example 102, 2-(4-{2-[(4aR,10bS)-3,4,4a,5,6,10b-hexahydro-1,10-phenanthrolin-1(2H)-ylmethyl]imidazo[1,2-a]pyridin-5-yl}-1-piperazinyl)-N,N-dimethylacetamide] | < 100
18 | OCCN1CCN(c2cccc3nc(CN4CCC[C@H]5CCc6cccnc6[C@H]54)cn23)CC1 [Example 103, 2-(4-{2-[(4aR,10bS)-3,4,4a,5,6,10b-hexahydro-1,10-phenanthrolin-1(2H)-ylmethyl]imidazo[1,2-a]pyridin-5-yl}-1-piperazinyl)ethanol] | < 100
19 | CN1CCCC1CCNc1cccc2nc(CN3CCC[C@H]4CCc5cccnc5[C@H]43)cn12 (stereo partly drawn) [Example 104, 2-[(4aR,10bS)-3,4,4a,5,6,10b-hexahydro-1,10-phenanthrolin-1(2H)-ylmethyl]-N-[2-(1-methyl-2-pyrrolidinyl)ethyl]imidazo[1,2-a]pyridin-5-amine] | < 100
20 | CN(C)[C@@H]1CCN(c2cccc3nc(CN4CCC[C@H]5CCc6cccnc6[C@H]54)cn23)C1 [Example 105, (3R)-1-{2-[(4aR,10bS)-3,4,4a,5,6,10b-hexahydro-1,10-phenanthrolin-1(2H)-ylmethyl]imidazo[1,2-a]pyridin-5-yl}-N,N-dimethyl-3-pyrrolidinamine] | < 100
21 | c1cnc2c(c1)CC[C@@H]1CCCN(Cc3cn4c(N5CCN6CCC[C@H]6C5)cccc4n3)[C@H]21 [Example 106, (4aR,10bS)-1-({5-[(8aS)-hexahydropyrrolo[1,2-a]pyrazin-2(1H)-yl]imidazo[1,2-a]pyridin-2-yl}methyl)-1,2,3,4,4a,5,6,10b-octahydro-1,10-phenanthroline] | < 100
22 | N[C@H]1CCN(c2cccc3nc(CN4CCC[C@H]5CCc6cccnc6[C@H]54)cn23)C1 [Example 107, (3S)-1-{2-[(4aR,10bS)-3,4,4a,5,6,10b-hexahydro-1,10-phenanthrolin-1(2H)-ylmethyl]imidazo[1,2-a]pyridin-5-yl}-3-pyrrolidinamine] | < 100
23 | OCCN1CCCN(c2cccc3nc(CN4CCC[C@H]5CCc6cccnc6[C@H]54)cn23)CC1 [Example 108, 2-(4-{2-[(4aR,10bS)-3,4,4a,5,6,10b-hexahydro-1,10-phenanthrolin-1(2H)-ylmethyl]imidazo[1,2-a]pyridin-5-yl}hexahydro-1H-1,4-diazepin-1-yl)ethanol] | < 100
